# Laboratory results reported in publication PMC7686313, “Phase 1 study of mTORC1/2 inhibitor sapanisertib (TAK-228) in advanced solid tumours, with an expansion phase in renal, endometrial or bladder cancer” (British Journal of Cancer, 2020).
# Test: Safety (adverse events, NCI CTCAE v4.0), expansion phase
# Conditions: expansion QW 30 mg
structure (smiles),measurement,value
CC(C)n1nc(-c2ccc3oc(N)nc3c2)c2c(N)ncnc21 [Sapanisertib],"Abdominal pain, all-grade AE of any cause",6 (35) n (%)
same,"Abdominal pain, grade ≥3 AE of any cause",0 (0) n (%)
same,"Acute kidney injury, grade ≥3 AE of any cause",0 (0) n (%)
same,"Acute kidney injury, treatment-related AE",0 (0) n (%)
same,"Anaemia, all-grade AE of any cause",2 (12) n (%)
same,"Anaemia, grade ≥3 AE of any cause",1 (6) n (%)
same,"Anaemia, treatment-related AE",2 (12) n (%)
same,Any AE,17 (100) n (%)
same,Any AE resulting in dose modification/interruption,8 (47) n (%)
same,Any AE resulting in treatment discontinuation,3 (18) n (%)
same,Any SAE,6 (35) n (%)
same,Any grade ≥3 AE,9 (53) n (%)
same,Any treatment-related AE,17 (100) n (%)
same,Any treatment-related SAE,3 (18) n (%)
same,Any treatment-related grade ≥3 AE,6 (35) n (%)
same,"Arthralgia, all-grade AE of any cause",2 (12) n (%)
same,"Asthenia, grade ≥3 AE of any cause",0 (0) n (%)
same,"Asthenia, treatment-related AE",1 (6) n (%)
same,"Asthenia, treatment-related grade ≥3 AE",0 (0) n (%)
same,"Blood creatinine increased, all-grade AE of any cause",4 (24) n (%)
same,"Blood creatinine increased, treatment-related AE",1 (6) n (%)
same,"Constipation, all-grade AE of any cause",8 (47) n (%)
same,"Constipation, grade ≥3 AE of any cause",1 (6) n (%)
same,"Cough, all-grade AE of any cause",5 (29) n (%)
same,"Decreased appetite, all-grade AE of any cause",7 (41) n (%)
same,"Decreased appetite, treatment-related AE",6 (35) n (%)
same,"Dehydration, all-grade AE of any cause",4 (24) n (%)
same,"Dehydration, grade ≥3 AE of any cause",0 (0) n (%)
same,"Dehydration, treatment-related AE",2 (12) n (%)
same,"Dehydration, treatment-related grade ≥3 AE",0 (0) n (%)
same,"Depression, all-grade AE of any cause",4 (24) n (%)
same,"Diarrhoea, all-grade AE of any cause",8 (47) n (%)
same,"Diarrhoea, grade ≥3 AE of any cause",0 (0) n (%)
same,"Diarrhoea, treatment-related AE",5 (29) n (%)
same,"Diarrhoea, treatment-related grade ≥3 AE",0 (0) n (%)
same,"Dizziness, all-grade AE of any cause",0 (0) n (%)
same,"Dry mouth, all-grade AE of any cause",3 (18) n (%)
same,"Dry mouth, treatment-related AE",1 (6) n (%)
same,"Dysgeusia, all-grade AE of any cause",4 (24) n (%)
same,"Dysgeusia, treatment-related AE",3 (18) n (%)
same,"Dyspepsia, treatment-related AE",3 (18) n (%)
same,"Dyspnoea, grade ≥3 AE of any cause",0 (0) n (%)
same,"Fatigue, all-grade AE of any cause",11 (65) n (%)
same,"Fatigue, grade ≥3 AE of any cause",2 (12) n (%)
same,"Fatigue, treatment-related AE",11 (65) n (%)
same,"Fatigue, treatment-related grade ≥3 AE",2 (12) n (%)
same,"Haematuria, grade ≥3 AE of any cause",0 (0) n (%)
same,"Headache, all-grade AE of any cause",2 (12) n (%)
same,"Headache, treatment-related AE",0 (0) n (%)
same,"Hypercholesterolemia, treatment-related AE",1 (6) n (%)
same,"Hyperglycaemia, all-grade AE of any cause",12 (71) n (%)
same,"Hyperglycaemia, grade ≥3 AE of any cause",2 (12) n (%)
same,"Hyperglycaemia, treatment-related AE",12 (71) n (%)
same,"Hyperglycaemia, treatment-related grade ≥3 AE",2 (12) n (%)
same,"Hyperkalaemia, grade ≥3 AE of any cause",0 (0) n (%)
same,"Hypertension, grade ≥3 AE of any cause",0 (0) n (%)
same,"Hypokalaemia, grade ≥3 AE of any cause",1 (6) n (%)
same,"Hyponatremia, grade ≥3 AE of any cause",1 (6) n (%)
same,"Hypophosphatemia, grade ≥3 AE of any cause",2 (12) n (%)
same,"Hypophosphatemia, treatment-related AE",2 (12) n (%)
same,"Hypophosphatemia, treatment-related grade ≥3 AE",1 (6) n (%)
same,"Lymphopenia, grade ≥3 AE of any cause",0 (0) n (%)
same,"Lymphopenia, treatment-related grade ≥3 AE",0 (0) n (%)
same,"Musculoskeletal chest pain, grade ≥3 AE of any cause",0 (0) n (%)
same,"Nausea, all-grade AE of any cause",13 (76) n (%)
same,"Nausea, grade ≥3 AE of any cause",2 (12) n (%)
same,"Nausea, treatment-related AE",11 (65) n (%)
same,"Nausea, treatment-related grade ≥3 AE",1 (6) n (%)
same,"Oedema peripheral, all-grade AE of any cause",1 (6) n (%)
same,On-study deaths,2 (12) n (%)
same,"Oropharyngeal pain, all-grade AE of any cause",1 (6) n (%)
same,"Pain in extremity, grade ≥3 AE of any cause",2 (12) n (%)
same,"Pneumonia, grade ≥3 AE of any cause",0 (0) n (%)
same,"Pruritus generalised, all-grade AE of any cause",4 (24) n (%)
same,"Pruritus generalised, treatment-related AE",2 (12) n (%)
same,"Pruritus generalised, treatment-related grade ≥3 AE",0 (0) n (%)
same,"Pruritus, all-grade AE of any cause",1 (6) n (%)
same,"Pruritus, treatment-related AE",1 (6) n (%)
same,"Pyrexia, all-grade AE of any cause",1 (6) n (%)
same,"Rash maculo-papular, all-grade AE of any cause",3 (18) n (%)
same,"Rash maculo-papular, grade ≥3 AE of any cause",0 (0) n (%)
same,"Rash maculo-papular, treatment-related AE",2 (12) n (%)
same,"Rash maculo-papular, treatment-related grade ≥3 AE",0 (0) n (%)
same,"Rash, treatment-related AE",0 (0) n (%)
same,"Rash, treatment-related grade ≥3 AE",0 (0) n (%)
same,"Sepsis, grade ≥3 AE of any cause",1 (6) n (%)
same,"Stomatitis (includes oropharyngeal pain and mucosal inflammation), treatment-related AE",8 (47) n (%)
same,"Stomatitis, all-grade AE of any cause",9 (53) n (%)
same,"Stomatitis, grade ≥3 AE of any cause",0 (0) n (%)
same,"Stomatitis, treatment-related grade ≥3 AE",0 (0) n (%)
same,"Thrombocytopenia, grade ≥3 AE of any cause",1 (6) n (%)
same,"Thrombocytopenia, treatment-related grade ≥3 AE",1 (6) n (%)
same,"Transitional cell carcinoma, grade ≥3 AE of any cause",1 (6) n (%)
same,"Urinary tract infection, all-grade AE of any cause",1 (6) n (%)
same,"Vomiting, all-grade AE of any cause",10 (59) n (%)
same,"Vomiting, grade ≥3 AE of any cause",1 (6) n (%)
same,"Vomiting, treatment-related AE",10 (59) n (%)
same,"Weight decreased, all-grade AE of any cause",2 (12) n (%)
same,"Weight decreased, treatment-related AE",0 (0) n (%)
